Source: patent EP4741374A1, “TREPROSTINIL DERIVATIVE, AND PREPARATION METHOD THEREFOR AND USE THEREOF” (CF PharmTech HongKong Limited, priority 2023, dated 2025)
Entries after “also recorded” stand apart in the source; their conditions may differ. Read-outs that look alike come from different tables or passages of the source.

Key:
IP receptor = molecular target: T1, IP receptor (Homo sapiens, UniProt P43119); assay: In-vitro agonist activity on IP receptor, FLIPR calcium test in IP/HEK293 cells; assay type: cell-based; conditions: 10 concentrations, 10-fold dilutions
T1 construct: host or cells: HEK293 (IP/HEK293 cell line)
Method: The specific method is as follows: The IP/HEK293 cell line was provided by WuXi AppTec (Shanghai) Co., Ltd. Well-grown IP/HEK293 cells were taken out from the incubator, the culture solution was aspirated, the cells were washed with D-PBS and digested with trypsin EDTA, and then added with a cell culture solution, and the cells were fully suspended by repeated pipetting. The cells were centrifuged at room temperature, the supernatant was aspirated, a culture medium was added, and the cells were resuspended by repeated pipetting with a sterile pipette. After counting living cells with Vi-CELL™, 20 µL (20,000 cells/well) of cell suspension was added to a 384-well cell culture plate and incubated in a 5% CO2 incubator at 37°C overnight. 1 mL of FLIPR test buffer was added with 77 mg of probenecid to prepare 250 mM probenecid solution. After thawing a bottle of 2XFluo-4 DirectTM (F10471), the bottle was added with 10 mL of FLIPR test buffer containing 500 uM AEBSF, and each 10 mL of Fluo-Direct was added with 0.2 mL of probenecid, with a final concentration of 2.5 mM. The mixture was vortexed and then allowed to stand in the dark for more than 5 minutes. Each compound was placed in a water bath at 25°C for 30 minutes. Then, these compounds were sequentially diluted 10-fold with Bravo, with a total of 10 concentrations, for testing. 750 nL of each compound was transferred to a 384-well compound plate with ECHO. Then, the compound plate was added with 30 µL of detection buffer. The 384-well cell culture plate was taken out from the incubator, the culture medium was discarded, and 20 µL of test buffer and 20 µL of 2X Fluo-4 DirectTM No-Wash loading buffer were added with a pipette. The cell culture plate was incubated in a 5% CO2 incubator at 37°C for 50 minutes and incubated at room temperature for 10 minutes. The cell culture plate, the compound plate and a tip box were placed into FLIPR, FLIPRTETRA test program was operated, 10 µL of reference compound and 10 µL of test compound were aspirated from the compound plate to the cell culture plate, fluorescence signals were read, and then data were processed. The data were analyzed by using Prism.

EP2 receptor = molecular target: T2, EP2 receptor (Homo sapiens, UniProt P43116); assay: Competitive binding to EP2 receptor against radiolabeled ligand 3H-PGE2; conditions: 8 concentrations from 10 µM, 10-fold dilutions
T2 construct: purchased Merck HTS185M
Method: This experiment was carried out in 96-well plates to evaluate the binding affinity of the compounds of the present invention (Ia-1, Ia-2 and Ia-3) to the prostaglandin EP2 receptor by testing their ability of competitive binding to the EP2 receptor with the radiolabeled ligand ^3H-PGE2. Treprostinil was used as control. MicroBeta2 was used to detect the number of ^3H captured, and Prism software was used to analyze data. The EP2 film (Merck, Cat# HT[…], batch number 2121326) was diluted with a buffer (50 mM Hepes, PH=7.4, 5 mM MgCl2, 1 mM CaCl2, 0.5% BSA) to a final concentration of 75 μg/mL. ^3H-PGE2 was diluted to 15 nM. Test compound and control compound solutions with an initial concentration of 10 μM were prepared, and subjected to 10-fold continuous gradient dilution, with a total of 8 concentrations for testing. 5%DMSO was used as a solvent control group. 1 μL of each compound solution was added into a corresponding position in the 96-well test plate, and each well was added with 50 μL of the EP2 film (about 3.75 μg/well), and added with 50 μ L of ^3H-PGE2. Then, the well plate was sealed, and incubated with shaking at 300 rpm at room temperature for 2 hours. After finishing the incubation, GF/C plates were filtered with Perkin Elmer Filtermate Harvester, and then each plate was washed with cold eluent for 4 times, and dried at 50°C for 1 hour. After drying, bottoms of wells of the filter plate were sealed with a PerkinElmer Unifilter-96 backing tape. 50 μL of Perkin Elmer Microscint O was added. The top of the filter plate was sealed with Perkin Elmer TopSeal-A sealing film. The number of ^3H captured was detected by MicroBeta2.

SD rats [1] = assay: U46619-induced rat acute pulmonary arterial pressure rise model, airway nebulized administration (RVSP); assay type: in vivo; conditions: for antihypertensive effect: equimolar to 13.3 µg/kg TRE; for antihypertensive effect and duration, overall: 1 to 48 hours after airway nebulized administration
Excerpt: U46619 was a stable analogue of thromboxane A2 (TXA2), which activated the downstream IP3 signal by binding to the thromboxane A2 receptor to promote vasoconstriction, platelet aggregation and the like. Influences of compound C16-TR and equimolar compounds Ia-1, Ia-2, Ia-3, R-11 and R-12 at different time points after airway nebulized administration on pulmonary hypertension of rats were studied by using the U46619-induced rat pulmonary arterial pressure rise mode, which were compared with that of equimolar TRE after airway nebulized administration.
Preparation of test sample: a required amount of compound TRE was taken and added into a sterile EP tube, and each tube was added with an appropriate amount of DMSO for dissolution to prepare a stock solution (100 mg/mL). Compounds C16-TR, la-1, la-2, Ia-3, R-11 and R-12 were added with appropriate amounts of DMSO and dissolved in the original bottles to prepare stock solutions (100 mg/mL), and then the stock solutions were transferred to sterile EP tubes. Each above stock solution was hermetically stored in the dark in a refrigerator at 4°C. When the stock solution was tested, an appropriate amount of stock solution was taken and added into a new sterile EP tube, and diluted with DMSO and 1×PBS to a target concentration (working solution) wherein the solvent was 3% DMSO/1×PBS.
Preparation of modeling agent: 900 µL of methyl acetate was added into an original bottle of U46619 and mixed evenly to prepare 1 mg/mL(1 µg/µL) stock solution, which was divided into 10 µL (1 µg/µL) per sterile EP tube and stored in a refrigerator at -20°C. On the day of modeling, the stock solution was taken out and balanced at room temperature and constant temperature, and each tube was added with an appropriate amount of 0.9% sodium chloride solution (sterile) to be diluted 20-fold, so as to prepare a working solution with a concentration of 50 ng/µL.
Airway nebulized administration dosages of compound TRE and the test compounds were equimolar quantities calculated based on TRE. The dosage of compound TRE group (n=3) was 13.3 µg/kg, the dosage of compound C16-TR group (n=5) was 20.9 µg/kg, the dosage of compound Ia-1 group (n=3) was 21.2 µg/kg, the dosage of compound Ia-2 group (n=6) was 22.1 µg/kg, the dosage of compound Ia-3 group (n=6) was 23.1 µg/kg, the dosage of compound R-11 group (n=3) was 21.9 µg/kg, and the dosage of compound R-12 group (n=3) was 21.7 µg/kg. There were also a model control group (n=1) and a solvent control group (n=3).
The SD rats were injected with U46619 (25 µg /kg) through the left jugular vein at different time points after airway nebulized administration, the peak value of RVSP rise after injection with U46619 was observed and recorded, and the inhibition percentage on the RVSP rise was calculated by comparing with the basic RVSP value. The rats in the model control group were administered with U46619 by intravenous injection immediately after successful catheterization and measurement of the basic RVSP. RVSP of all animals were detected by right cardiac catheterization, and respiratory conditions of the animals were observed generally. Table-2 Time points of administrating U46619 in various groups

SD rats [2] = assay: U46619-induced rat acute pulmonary arterial pressure rise model, low-dose airway nebulized administration (RVSP); assay type: in vivo; conditions: for Inhibition percentage on RVSP rise (%) (mean): 1 hour after low-dose airway nebulized administration (about 3 µg/kg, equimolar)
Excerpt: In this experiment, airway nebulized administration dosages of the compounds were about 1/7 of airway nebulized administration dosages in Experimental Example 5. By using a U46619-induced rat acute pulmonary arterial pressure rise model, antihypertensive effects of the compounds of the present invention after airway nebulized administration were further verified by reducing the administration dosages.
A model construction method was the same as that described in Experimental Example 5. In this experiment, dosages of groups were as follows: the dosage of compound C16-TR group was 3 µg/kg, and the dosages of equimolar compounds Ia-1, Ia-2 and Ia-3 were 3.0 µg/kg, 3.2 µg/kg and 3.3 µg/kg respectively.
The SD rats were anesthetized and then administered by airway nebulization, and then the basic right ventricular systolic pressure (RVSP) was measured by right cardiac catheterization. The SD rats were intravenously injected with U46619 (25 µg /kg) at 1 hour after airway nebulized administration of each compound, a peak value of RVSP rise after injection with U46619 was observed and recorded, and the inhibition percentage on the RVSP rise was calculated by comparing with the basic RVSP value. The number of experimental animals in each group was 1~2.

[3] = inhaled treprostinil; cited from earlier work
porcine esterase = assay: Hydrolysis conversion rate of compounds into TRE mediated by porcine esterase; conditions: experiment (c); 0.2 mg/mL, 20 U porcine esterase, 38°C; 5 minutes to 2 hours
Method: This experiment was designed to evaluate the conversion rates of various compounds with different ester side chain structures into the TRE under the action of esterase.
The carbon number of the ester side chain of each compound was 10, wherein the alkyl side chains of R-05, R-06 and R-08 contained 1~3 oxygen atoms respectively. Each compound was dissolved in 20 mL of ethanol to prepare a 1 mg/ml test compound solution for later use. Then, 1 mL of the test compound solution was transferred into 4 mL of PBS aqueous solution to obtain 0.2 mg/mL test compound reaction solution. The reaction solution was added with 20 U (80 µL) of porcine esterase, shaken evenly and then incubated at 38°C. After a period of reaction, samples were taken according to the following time points: 10 minutes, 30 minutes, 1 hour and 2 hours. The conversion of the test compound into TRE was detected. The hydrolysis of each sample was calculated according to measured peak areas of the reactant and the product: [formula]
Sampling time points were: 20 minutes, 40 minutes, 1 hour and 2 hours.
Sampling time points were: 5 minutes, 15 minutes, 30 minutes, 1 hour and 2 hours.

[4] = cited from earlier work
subjects = conditions: cited from earlier work
[5] = 16 hours after airway nebulized administration

T2 sequence (P43116 whole entry): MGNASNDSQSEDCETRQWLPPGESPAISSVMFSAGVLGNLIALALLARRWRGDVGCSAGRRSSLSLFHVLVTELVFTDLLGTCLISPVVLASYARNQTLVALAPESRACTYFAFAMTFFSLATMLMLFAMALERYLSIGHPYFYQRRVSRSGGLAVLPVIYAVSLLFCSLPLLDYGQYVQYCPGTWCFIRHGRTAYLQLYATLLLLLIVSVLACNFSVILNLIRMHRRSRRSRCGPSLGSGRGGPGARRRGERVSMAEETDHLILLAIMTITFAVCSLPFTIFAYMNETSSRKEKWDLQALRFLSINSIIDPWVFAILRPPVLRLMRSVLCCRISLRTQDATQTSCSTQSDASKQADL
T1 sequence (P43119 whole entry): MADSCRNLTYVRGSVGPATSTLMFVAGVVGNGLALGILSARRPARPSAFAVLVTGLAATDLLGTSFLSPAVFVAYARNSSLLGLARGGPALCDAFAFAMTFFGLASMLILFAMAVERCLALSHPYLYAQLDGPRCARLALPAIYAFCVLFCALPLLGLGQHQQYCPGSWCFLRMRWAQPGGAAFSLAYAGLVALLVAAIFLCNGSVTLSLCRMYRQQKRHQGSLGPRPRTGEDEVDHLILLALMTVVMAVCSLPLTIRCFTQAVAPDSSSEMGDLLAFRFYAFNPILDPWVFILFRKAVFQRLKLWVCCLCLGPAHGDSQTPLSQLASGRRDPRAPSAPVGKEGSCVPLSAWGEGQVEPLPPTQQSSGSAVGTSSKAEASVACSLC

SMILES	agonist activity on IP receptor (IP receptor)	binding to the EP2 receptor (competition with 3H-PGE2) (EP2 receptor)	antihypertensive effects compared with C16-TR (SD rats [1]; 1 hour and 6 hours after airway nebulized administration, equimolar doses)	antihypertensive effect (SD rats [1]; [5])	Inhibition percentage on RVSP rise (%) (mean) (SD rats [2])	inhibition percentage on the RVSP rise (SD rats [1]; 13.3 µg/kg, 16 minutes after airway nebulized administration)	half-life [3]	hydrolysis conversion rates (release of TRE) (porcine esterase)	antihypertensive effect and duration, overall (SD rats [1]; equimolar doses)	antihypertensive effect (SD rats [2]; 1 hour after low-dose airway nebulized administration)	physical stability in solution on long-term storage ([4]; HFA propellant with ethanol and DSPE-PEG2000, storage >1 week)	solubility in HFA propellant ([4]; content of ethanol lower than 13%)	reaction of dissolved compound with the alcohol solvent ([4]; dissolved state, ethanol)	side effects (subjects; 170 µg/kg and 340 µg/kg)	side effects (subjects; low dose (54 µg/kg))	antihypertensive effect (SD rats [1]; 24 hours after airway nebulized administration)
CCCCC[C@H](O)CC[C@@H]1[C@H]2Cc3cccc(OCC(=O)OCCCCCCOCCCCc4ccccc4)c3C[C@H]2C[C@H]1O [Compound Ia-1]	no agonist activity	no detectable binding	better than those of C16-TR	no antihypertensive effect	67.67	–	–	–	–	–	–	–	–	–	–	–
CCCCC[C@H](O)CC[C@@H]1[C@H]2Cc3cccc(OCC(=O)O)c3C[C@H]2C[C@H]1O [TRE, treprostinil]	strong agonist activity	competitively inhibited the binding of the ligand ^3H-PGE2 to the EP2 receptor in a concentration-dependent manner	–	–	–	about 39%	about 30 minutes	–	–	–	–	–	–	–	–	–
CCCCCCCCCCCCCCCCOC(=O)COc1cccc2c1C[C@H]1C[C@@H](O)[C@H](CC[C@@H](O)CCCCC)[C@H]1C2 [Compound C16-TR, treprostinil palmitate]	–	–	–	no antihypertensive effect	5.49	–	–	significantly prolong the hydrolysis conversion rates and release TRE slowly and steadily	long-term antihypertensive effects	no antihypertensive effect	could not remain soluble	could not be dissolved	generates ester exchange impurities with the alcohol solvent; also recorded: can react with ethanol, leading to substitution of the C16 ester by an ethyl ester	developed cough and sore throat	no side effects such as cough or sore throat	–
CCCCC[C@H](O)CC[C@@H]1[C@H]2Cc3cccc(OCC(=O)OCCCCCCCCCCOCCCCc4ccccc4)c3C[C@H]2C[C@H]1O [Compound Ia-3]	no agonist activity	no detectable binding	–	–	83.49	–	–	–	stronger antihypertensive effects than C16-TR and longer durations	–	–	–	–	–	–	obvious antihypertensive effects
